# Measured values: ChEMBL document CHEMBL5113530, “Butyrylation Meets Adipogenesis-Probed by a p300-Catalyzed Acylation-Specific Small Molecule Inhibitor: Implication in Anti-obesity Therapy” (J Med Chem, 2022)
# Activity calls are given as the source filed them. The calls are words filed in the database; no cut-off is given here.
# Tests used:
# Mus musculus [1] = assay: Anti-obesity activity in C57BL6/J mouse model of high fat diet-induced obesity assessed as daily food consumption measured per day per mouse at 50 mg/kg (reference value: 1.95547 +/- 0.23142 g); type: functional
# 3T3-L1 [2] = assay: Anti-adipogenic activity against mouse 3T3-L1 cells assessed as upregulation of TEAD4 mRNA expression at 25 uM measured after 7 days by qRT-PCR analysis; type: functional, cell-based; conditions: time 7.0 day
# [3] = Toxicity in female Sprague-Dawley rat assessed as average food intake at 1000 mg/kg, po administered as single dose measured on day 1 (Rvb =17.84 g/day); type: organism-based; conditions: in vivo, 24 h, time 1 day
# [4] = Toxicity in female Sprague-Dawley rat assessed as effect on body weight at 500 mg/kg, po administered as single dose measured on day 1 (Rvb =152.21 +/- 6.58 g); type: organism-based; conditions: in vivo, 24 h, time 1 day
# [5] = Toxicity in male Sprague-Dawley rat assessed as average food intake at 500 mg/kg, po administered as single dose measured on day 14 (Rvb =21.24 g/day); type: organism-based; conditions: in vivo, 336 h, time 14 day
# 3T3-L1 [6] = assay: Anti-adipogenic activity against mouse 3T3-L1 cells assessed as downregulation of PPARG mRNA expression at 25 uM measured after 7 days by qRT-PCR analysis; type: functional, cell-based; conditions: time 7.0 day
# [7] = Toxicity in male Sprague-Dawley rat assessed as average food intake at 1000 mg/kg, po administered as single dose measured on day 7 (Rvb =20.24 g/day); type: organism-based; conditions: in vivo, 168 h, time 7 day
# [8] = Toxicity in male Sprague-Dawley rat assessed as effect on body weight at 1000 mg/kg, po administered as single dose measured on day 14 (Rvb =231.13 +/- 18.38 g); type: organism-based; conditions: in vivo, 336 h, time 14 day
# [9] = Toxicity in female Sprague-Dawley rat assessed as average water intake measured per day at 250 mg/kg, po administered as single dose measured on day 14 (Rvb =26 ml/day); type: organism-based; conditions: in vivo, 336 h, time 14 day
# [10] = Toxicity in female Sprague-Dawley rat assessed as average water intake measured per day at 250 mg/kg, po administered as single dose measured on day 1 (Rvb =25 ml/day); type: organism-based; conditions: in vivo, 24 h, time 1 day
# [11] = Toxicity in female Sprague-Dawley rat assessed as average food intake at 1000 mg/kg, po administered as single dose measured on day 7 (Rvb =15.65 g/day); type: organism-based; conditions: in vivo, 168 h, time 7 day
# [12] = Toxicity in male Sprague-Dawley rat assessed as average water intake measured per day at 1000 mg/kg, po administered as single dose measured on day 1 (Rvb =32 ml/day); type: organism-based; conditions: in vivo, 24 h, time 1 day
# [13] = Toxicity in male Sprague-Dawley rat assessed as average water intake measured per day at 250 mg/kg, po administered as single dose measured on day 7 (Rvb =30 ml/day); type: organism-based; conditions: in vivo, 168 h, time 7 day
# Mus musculus [14] = assay: Anti-obesity activity in db/db mouse assessed as reduction in H4K5 butyrylation level in liver at 50 mg/kg, po qd administered for 30 days by DAPI staining based immunofluorescence microscopic analysis; type: functional, organism-based; conditions: time 30.0 day
# [15] = Toxicity in male Sprague-Dawley rat assessed as average water intake measured per day at 1000 mg/kg, po administered as single dose measured on day 14 (Rvb =34 ml/day); type: organism-based; conditions: in vivo, 336 h, time 14 day
# 3T3-L1 [16] = assay: Anti-adipogenic activity against mouse 3T3-L1 cells assessed as downregulation of FASN mRNA expression at 25 uM measured after 7 days by qRT-PCR analysis; type: functional, cell-based; conditions: time 7.0 day
# [17] = Toxicity in female Sprague-Dawley rat assessed as average water intake measured per day at 500 mg/kg, po administered as single dose measured on day 7 (Rvb =21 ml/day); type: organism-based; conditions: in vivo, 168 h, time 7 day
# 3T3-L1 [18] = assay: Inhibition of H3K23 butyrylation in mouse 3T3-L1 cells by Immunoblotting analysis; type: functional, cell-based
# [19] = Toxicity in male Sprague-Dawley rat assessed as average food intake at 500 mg/kg, po administered as single dose measured on day 1 (Rvb =20.38 g/day); type: organism-based; conditions: in vivo, 24 h, time 1 day
# [20] = Toxicity in female Sprague-Dawley rat assessed as average water intake measured per day at 1000 mg/kg, po administered as single dose measured on day 1 (Rvb =25 ml/day); type: organism-based; conditions: in vivo, 24 h, time 1 day
# 3T3-L1 [21] = assay: Anti-adipogenic activity against mouse 3T3-L1 cells assessed as downregulation of ACSS2 mRNA expression at 25 uM measured after 7 days by qRT-PCR analysis; type: functional, cell-based; conditions: time 7.0 day
# [22] = Toxicity in male Sprague-Dawley rat assessed as average food intake at 250 mg/kg, po administered as single dose measured on day 7 (Rvb =20.24 g/day); type: organism-based; conditions: in vivo, 168 h, time 7 day
# 3T3-L1 [23] = assay: Cytotoxicity against in mouse 3T3-L1 cells assessed as effect on cellular oxidoreductase activity at 25 uM incubated for 6 days by MTT assay; type: toxicity, cell-based; conditions: 3t3-l1, 144 h, time 6 day
# Mus musculus [24] = assay: Anti-obesity activity in db/db mouse assessed as inhibition of slc2a4 expression at 50 mg/kg, po qd administered for 30 days by qRT-PCR analysis; type: functional, organism-based; conditions: time 30.0 day
# [25] = Toxicity in male Sprague-Dawley rat assessed as average food intake at 1000 mg/kg, po administered as single dose measured on day 1 (Rvb =20.38 g/day); type: organism-based; conditions: in vivo, 24 h, time 1 day
# Mus musculus [26] = assay: Anti-obesity activity in db/db mouse assessed as inhibition of lep gene expression at 50 mg/kg, po qd administered for 30 days by qRT-PCR analysis; type: functional, organism-based; conditions: time 30.0 day
# 3T3-L1 [27] = assay: Anti-adipogenic activity against mouse 3T3-L1 cells assessed as upregulation of KDM4C mRNA expression at 25 uM measured after 7 days by qRT-PCR analysis; type: functional, cell-based; conditions: time 7.0 day
# [28] = Toxicity in female Sprague-Dawley rat assessed as average water intake measured per day at 1000 mg/kg, po administered as single dose measured on day 7 (Rvb =21 ml/day); type: organism-based; conditions: in vivo, 168 h, time 7 day
# [29] = system: Histone acetyltransferase p300 (Homo sapiens), Q09472 [C1438A]; assay: Inhibition of His-tagged EP300 C1438A mutant catalytic domain catalyzed butyrylation (unknown origin) expressed in Escherichia coli BL21 (DE3) using Histone H3 as substrate at 25 uM preincubated with compound for 10 mins followed by butyryl-CoA addition and measured after 10 mins by Western blot analysis; conditions: time 20.0 min
# Histone acetyltransferase p300 (Homo sapiens), Q09472 [C1438A], sequence (Q09472 whole entry C1438A, the tested form may be a part): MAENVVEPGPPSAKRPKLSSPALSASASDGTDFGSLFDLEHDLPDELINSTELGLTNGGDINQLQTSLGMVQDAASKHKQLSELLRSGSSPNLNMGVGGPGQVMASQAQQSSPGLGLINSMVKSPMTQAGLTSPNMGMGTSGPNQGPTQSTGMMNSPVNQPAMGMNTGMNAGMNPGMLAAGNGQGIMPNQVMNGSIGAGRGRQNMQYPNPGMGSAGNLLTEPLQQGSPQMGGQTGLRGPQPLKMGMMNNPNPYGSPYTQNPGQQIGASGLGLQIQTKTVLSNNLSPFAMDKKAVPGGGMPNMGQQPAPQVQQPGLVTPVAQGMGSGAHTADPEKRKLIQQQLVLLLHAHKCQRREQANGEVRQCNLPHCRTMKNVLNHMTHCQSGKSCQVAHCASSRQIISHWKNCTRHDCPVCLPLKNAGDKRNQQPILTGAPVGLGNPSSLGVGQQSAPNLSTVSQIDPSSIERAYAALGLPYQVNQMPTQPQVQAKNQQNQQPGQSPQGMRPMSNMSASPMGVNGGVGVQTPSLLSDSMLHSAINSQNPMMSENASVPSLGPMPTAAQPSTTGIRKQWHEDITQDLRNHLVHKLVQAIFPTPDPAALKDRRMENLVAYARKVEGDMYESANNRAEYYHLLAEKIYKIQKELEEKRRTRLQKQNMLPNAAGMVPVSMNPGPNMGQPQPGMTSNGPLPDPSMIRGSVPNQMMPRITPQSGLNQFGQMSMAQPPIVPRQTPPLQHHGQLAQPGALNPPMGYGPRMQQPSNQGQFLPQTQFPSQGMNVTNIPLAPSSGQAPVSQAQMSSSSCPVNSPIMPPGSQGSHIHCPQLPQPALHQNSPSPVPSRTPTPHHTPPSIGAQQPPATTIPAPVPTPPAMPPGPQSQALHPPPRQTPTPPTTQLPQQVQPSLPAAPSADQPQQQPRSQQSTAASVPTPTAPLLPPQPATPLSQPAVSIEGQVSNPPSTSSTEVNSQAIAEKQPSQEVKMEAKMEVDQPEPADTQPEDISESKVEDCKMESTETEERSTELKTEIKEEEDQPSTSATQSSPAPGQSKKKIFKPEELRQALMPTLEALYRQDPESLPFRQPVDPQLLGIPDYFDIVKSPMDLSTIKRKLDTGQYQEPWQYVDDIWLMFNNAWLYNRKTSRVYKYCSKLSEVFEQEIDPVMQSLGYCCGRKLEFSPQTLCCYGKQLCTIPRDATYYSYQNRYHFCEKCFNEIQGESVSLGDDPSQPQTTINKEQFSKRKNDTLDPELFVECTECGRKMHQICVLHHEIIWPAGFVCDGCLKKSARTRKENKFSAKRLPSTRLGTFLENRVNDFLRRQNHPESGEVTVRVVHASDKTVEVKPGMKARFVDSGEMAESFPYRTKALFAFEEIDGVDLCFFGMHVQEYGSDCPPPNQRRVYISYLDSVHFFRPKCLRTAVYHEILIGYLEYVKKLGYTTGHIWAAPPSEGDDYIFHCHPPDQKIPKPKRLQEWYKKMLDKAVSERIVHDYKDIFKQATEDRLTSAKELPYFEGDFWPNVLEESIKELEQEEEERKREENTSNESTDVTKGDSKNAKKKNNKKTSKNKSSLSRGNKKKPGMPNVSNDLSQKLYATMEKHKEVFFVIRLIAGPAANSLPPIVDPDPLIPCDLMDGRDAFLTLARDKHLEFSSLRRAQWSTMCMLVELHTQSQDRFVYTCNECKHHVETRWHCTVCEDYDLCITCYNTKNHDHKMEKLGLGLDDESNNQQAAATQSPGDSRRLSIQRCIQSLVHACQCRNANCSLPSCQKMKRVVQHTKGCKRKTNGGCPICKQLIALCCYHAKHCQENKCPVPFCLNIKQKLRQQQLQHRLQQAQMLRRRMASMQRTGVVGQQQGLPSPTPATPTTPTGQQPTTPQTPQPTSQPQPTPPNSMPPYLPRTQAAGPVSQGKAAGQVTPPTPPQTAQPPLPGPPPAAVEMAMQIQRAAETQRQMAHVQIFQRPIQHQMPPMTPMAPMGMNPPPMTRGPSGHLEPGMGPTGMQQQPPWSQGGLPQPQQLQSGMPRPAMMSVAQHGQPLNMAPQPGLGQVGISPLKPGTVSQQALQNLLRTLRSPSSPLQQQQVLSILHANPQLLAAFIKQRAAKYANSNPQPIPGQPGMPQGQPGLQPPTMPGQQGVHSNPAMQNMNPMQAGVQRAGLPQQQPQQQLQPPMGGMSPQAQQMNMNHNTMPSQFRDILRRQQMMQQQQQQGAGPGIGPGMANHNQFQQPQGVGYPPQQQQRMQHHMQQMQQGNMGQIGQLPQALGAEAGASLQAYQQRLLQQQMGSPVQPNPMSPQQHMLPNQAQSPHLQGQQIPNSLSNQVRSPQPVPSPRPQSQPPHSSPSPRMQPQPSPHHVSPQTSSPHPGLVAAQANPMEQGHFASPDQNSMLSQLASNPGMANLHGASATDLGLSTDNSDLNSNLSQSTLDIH
# Mus musculus [30] = assay: Anti-obesity activity in C57BL6/J mouse model of high fat diet-induced obesity assessed as reduction in adipocyte hypertrophy at 50 mg/kg by hematoxylin and eosin staining based assay; type: functional, organism-based
# [31] = Toxicity in male Sprague-Dawley rat assessed as effect on body weight at 250 mg/kg, po administered as single dose measured on day 7 (reference value: 217.38 +/- 11.38 g); type: organism-based; conditions: in vivo, 168 h, time 7 day
# Mus musculus [32] = assay: Anti-obesity activity in C57BL6/J mouse model of high fat diet-induced obesity assessed as inhibition of H4K5 butyrylation level in liver at 50 mg/kg by DAPI staining based immunofluorescence microscopic analysis; type: functional, organism-based
# 3T3-L1 [33] = assay: Anti-adipogenic activity against mouse 3T3-L1 cells assessed as downregulation of FABP4 mRNA expression at 25 uM measured after 7 days by qRT-PCR analysis; type: functional, cell-based; conditions: time 7.0 day
# [34] = Toxicity in female Sprague-Dawley rat assessed as effect on body weight at 250 mg/kg, po administered as single dose measured on day 1 (Rvb =152.21 +/- 6.58 g); type: organism-based; conditions: in vivo, 24 h, time 1 day
smiles,measurement,setting,value
COc1ccc(C(=O)C2=C3OC(C)(C)[C@@H](CC=C(C)C)C[C@@]34C[C@@H](CC=C(C)C)C(C)(C)[C@](CC=C(C)C)(C2=O)C4=O)cc1OC,Activity,Mus musculus [1],2.041 g
same,Activity,3T3-L1 [2],Active
same,Activity,[3],18.17 g/day
same,Activity,[4],153.32 g
same,Activity,[5],23.29 g/day
same,Activity,3T3-L1 [6],Active
same,Activity,[7],20.74 g/day
same,Activity,[8],226.19 g
same,Activity,[9],24 mL
same,Activity,[10],26 mL
same,Activity,[11],17.82 g/day
same,Activity,[12],34 mL
same,Activity,[13],27 mL
same,Activity,Mus musculus [14],Active
same,Activity,[15],38 mL
same,Activity,3T3-L1 [16],Active
same,Activity,[17],23 mL
same,inhibition,3T3-L1 [18],Active
same,Activity,[19],20.99 g/day
same,Activity,[20],26 mL
same,Activity,3T3-L1 [21],Active
same,Activity,[22],20.79 g/day
same,Activity,3T3-L1 [23],Non-Toxic
same,Activity,Mus musculus [24],Active
same,Activity,[25],20.76 g/day
same,Activity,Mus musculus [26],Active
same,Activity,3T3-L1 [27],Active
same,Activity,[28],22 mL
same,inhibition,[29],Active
same,Activity,Mus musculus [30],Active
same,Activity,[31],216.62 g
same,Activity,Mus musculus [32],Active
same,Activity,3T3-L1 [33],Active
same,Activity,[34],151.99 g
